In ChEMBL document CHEMBL1221281, “Discovery of 2-(4-((1H-1,2,4-triazol-1-yl)methyl)-5-(4-bromophenyl)-1-(2-chlorophenyl)-1H-pyrazol-3-yl)-5-tert-butyl-1,3,4-thiadiazole (GCC2680) as a potent, selective and orally efficacious cannabinoid-1 receptor antagonist” (Bioorg Med Chem, 2010):

How the values were obtained:
Cannabinoid receptor 2 = Cannabinoid receptor 2 (Homo sapiens, UniProt P34972); assay: Displacement of [3H]WIN-55212-2 from human CB2 receptor expressed in CHO-K1 cells after 1 hr by liquid scintillation counting; assay type: cell-based
[1] = Selectivity ratio of IC50 for human CB2 receptor to IC50 for CB1 receptor in Sprague-Dawley rat cerebellum; assay type: tissue-based
Cannabinoid receptor 1 = Cannabinoid receptor 1 (Rattus norvegicus, UniProt P20272)
Description: Displacement of [3H]CP-55940 from CB1 receptor in Sprague-Dawley rat cerebellum after 1 hr by liquid scintillation counting

Mus musculus [2] = assay: Antiobesity activity in diet-induced obesity C57BL/6 mouse model assessed as reduction of body weight at 10 mg/kg, po qd for 14 days; assay type: functional; parameters: scale not given: the % may be the effect or the level left
Rattus norvegicus [3] = assay: Antiobesity activity in diet-induced obesity Sprague-Dawley rat model assessed as reduction of body weight administered at 10 mg/kg, po qd for 13 days; assay type: functional; parameters: scale not given: the % may be the effect or the level left
[4] = Tmax in Sprague-Dawley rat at 5 mg/kg, po; assay type: ADME, organism-based; parameters: dose 5 mg/kg, route oral; settings: in vivo
[5] = Cmax in Sprague-Dawley rat at 5 mg/kg, po; assay type: ADME, organism-based; parameters: dose 5 mg/kg, route oral; settings: in vivo
[6] = Cmax in Sprague-Dawley rat at 1 mg/kg, iv; assay type: ADME, organism-based; parameters: dose 1 mg/kg, route intravenous; settings: in vivo
Rattus norvegicus [7] = assay: Clast in Sprague-Dawley rat at 5 mg/kg, po; assay type: ADME, organism-based; parameters: dose 5 mg/kg, route oral; settings: in vivo
Rattus norvegicus [8] = assay: Clast in Sprague-Dawley rat at 1 mg/kg, iv; assay type: ADME, organism-based; parameters: dose 1 mg/kg, route intravenous; settings: in vivo
[9] = Half life in Sprague-Dawley rat at 5 mg/kg, po; assay type: ADME, organism-based; parameters: dose 5 mg/kg, route oral; settings: in vivo
[10] = Half life in Sprague-Dawley rat at 1 mg/kg, iv; assay type: ADME, organism-based; parameters: dose 1 mg/kg, route intravenous; settings: in vivo
[11] = Clearance in Sprague-Dawley rat at 1 mg/kg, iv; assay type: ADME, organism-based; parameters: dose 1 mg/kg, route intravenous; settings: in vivo
Rattus norvegicus [12] = assay: AUC (0 to infinity) in Sprague-Dawley rat at 5 mg/kg, po; assay type: ADME, organism-based, Plasma; parameters: time infinity, dose 5 mg/kg, route oral; settings: in vivo
Rattus norvegicus [13] = assay: AUC (0 to infinity) in Sprague-Dawley rat at 1 mg/kg, iv; assay type: ADME, organism-based, Plasma; parameters: time infinity, dose 1 mg/kg, route intravenous; settings: in vivo
[14] = Oral bioavailability in Sprague-Dawley rat at 5 mg/kg, po; assay type: ADME, organism-based; settings: in vivo
[15] = Ratio of drug level in brain to plasma in Sprague-Dawley rat; assay type: ADME
Cytochrome P450 1A2 = biological target: T1, Cytochrome P450 1A2 (Homo sapiens, UniProt P05177); assay: Inhibition of CYP1A2 in human liver microsomes after 30 mins; assay type: ADME, Microsome
T1 sequence (P05177 whole entry): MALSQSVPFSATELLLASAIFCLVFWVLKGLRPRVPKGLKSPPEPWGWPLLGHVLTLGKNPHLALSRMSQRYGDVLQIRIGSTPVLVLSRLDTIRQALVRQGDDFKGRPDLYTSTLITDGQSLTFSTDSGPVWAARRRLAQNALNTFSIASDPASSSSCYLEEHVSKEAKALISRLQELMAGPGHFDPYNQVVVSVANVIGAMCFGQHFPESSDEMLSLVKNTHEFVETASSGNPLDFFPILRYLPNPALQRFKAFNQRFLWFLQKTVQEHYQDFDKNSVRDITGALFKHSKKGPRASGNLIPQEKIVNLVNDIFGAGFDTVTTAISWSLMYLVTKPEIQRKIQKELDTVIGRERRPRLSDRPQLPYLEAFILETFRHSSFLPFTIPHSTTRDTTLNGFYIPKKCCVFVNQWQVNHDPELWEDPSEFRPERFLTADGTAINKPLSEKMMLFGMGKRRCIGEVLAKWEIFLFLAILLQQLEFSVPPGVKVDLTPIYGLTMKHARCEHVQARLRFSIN

Cytochrome P450 2C9 = Cytochrome P450 2C9 (Homo sapiens, UniProt P11712); assay: Inhibition of CYP2C9 in human liver microsomes after 30 mins; assay type: ADME, Microsome
[16] = biological target: Voltage-gated inwardly rectifying potassium channel KCNH2 (Homo sapiens, UniProt Q12809); assay: Inhibition of human ERG at holding potential of -80 mV to +40 mV
Nucleic Acid = assay: Induction of DNA damage up to 50 uM after 2 hrs by comet assay; assay type: nucleic-acid assay
[17] = Mutagenic activity in Salmonella Typhimurium TA100 assessed as number of spontaneous and drug-induced revertants after 48 hrs by Ames test; assay type: toxicity; settings: salmonella enterica subsp. enterica serovar typhimurium
Cytochrome P450 2D6 = Cytochrome P450 2D6 (Homo sapiens, UniProt P10635); assay: Inhibition of CYP2D6 in human liver microsomes after 30 mins; assay type: ADME, Microsome
Cytochrome P450 3A4 = Cytochrome P450 3A4 (Homo sapiens, UniProt P08684); assay: Inhibition of CYP3A4 in human liver microsomes after 30 mins; assay type: ADME, Microsome
Mus musculus [18] = assay: Antiobesity activity in diet-induced obesity C57BL/6 mouse model assessed as reduction of body weight at 3 mg/kg, po qd for 13 days; assay type: functional; parameters: scale not given: the % may be the effect or the level left
[19] = Cytotoxicity against human HuH7 cells; assay type: cell-based; settings: Huh-7
Vero = assay: Cytotoxicity against african green monkey Vero cells; assay type: cell-based; settings: Chlorocebus sabaeus
HCT-116 = assay: Cytotoxicity against human HCT116 cells; assay type: cell-based
HEK293 = assay: Cytotoxicity against human HEK293 cells; assay type: cell-based

Cytochrome P450 2D6, sequence (P10635 whole entry): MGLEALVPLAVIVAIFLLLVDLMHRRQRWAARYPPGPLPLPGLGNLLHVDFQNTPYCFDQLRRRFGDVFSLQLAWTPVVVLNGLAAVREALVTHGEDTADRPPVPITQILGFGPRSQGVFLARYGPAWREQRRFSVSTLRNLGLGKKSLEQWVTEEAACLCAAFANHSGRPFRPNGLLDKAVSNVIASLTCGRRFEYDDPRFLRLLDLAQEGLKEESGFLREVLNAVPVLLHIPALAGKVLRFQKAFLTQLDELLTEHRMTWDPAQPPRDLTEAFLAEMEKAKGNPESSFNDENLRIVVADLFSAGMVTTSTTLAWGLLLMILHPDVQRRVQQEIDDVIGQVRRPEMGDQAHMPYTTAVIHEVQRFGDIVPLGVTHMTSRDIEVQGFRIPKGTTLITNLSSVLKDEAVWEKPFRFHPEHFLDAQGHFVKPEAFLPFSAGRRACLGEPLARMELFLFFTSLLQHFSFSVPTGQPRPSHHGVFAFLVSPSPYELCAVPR
Cannabinoid receptor 1, sequence (P20272 whole entry): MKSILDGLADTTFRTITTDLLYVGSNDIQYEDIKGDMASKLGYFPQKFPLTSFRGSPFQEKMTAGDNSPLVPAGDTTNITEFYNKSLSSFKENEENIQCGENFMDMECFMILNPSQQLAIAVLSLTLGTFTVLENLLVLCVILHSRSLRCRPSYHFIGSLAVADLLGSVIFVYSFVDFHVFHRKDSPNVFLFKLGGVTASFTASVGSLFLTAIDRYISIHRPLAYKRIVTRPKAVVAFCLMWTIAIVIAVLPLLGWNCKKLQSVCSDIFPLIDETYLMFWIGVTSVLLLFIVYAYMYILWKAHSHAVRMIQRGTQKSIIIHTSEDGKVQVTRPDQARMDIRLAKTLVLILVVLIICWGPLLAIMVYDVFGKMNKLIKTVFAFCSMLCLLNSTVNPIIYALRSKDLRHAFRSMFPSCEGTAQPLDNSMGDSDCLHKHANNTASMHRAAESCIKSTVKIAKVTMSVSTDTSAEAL
Cytochrome P450 3A4, sequence (P08684 whole entry): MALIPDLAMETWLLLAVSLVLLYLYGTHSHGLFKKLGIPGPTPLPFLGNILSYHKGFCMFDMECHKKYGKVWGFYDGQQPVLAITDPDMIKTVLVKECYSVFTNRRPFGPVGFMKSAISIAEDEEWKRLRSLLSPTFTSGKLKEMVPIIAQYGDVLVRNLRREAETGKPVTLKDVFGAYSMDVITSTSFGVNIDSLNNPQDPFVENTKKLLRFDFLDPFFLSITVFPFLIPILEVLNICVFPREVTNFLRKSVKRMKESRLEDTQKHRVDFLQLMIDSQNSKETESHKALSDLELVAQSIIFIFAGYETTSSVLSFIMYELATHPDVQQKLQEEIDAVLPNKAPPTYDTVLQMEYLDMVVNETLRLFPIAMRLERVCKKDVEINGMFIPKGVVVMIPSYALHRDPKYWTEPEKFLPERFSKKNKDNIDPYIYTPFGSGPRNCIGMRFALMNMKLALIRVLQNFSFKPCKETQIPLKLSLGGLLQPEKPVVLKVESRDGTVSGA
Cytochrome P450 2C9, sequence (P11712 whole entry): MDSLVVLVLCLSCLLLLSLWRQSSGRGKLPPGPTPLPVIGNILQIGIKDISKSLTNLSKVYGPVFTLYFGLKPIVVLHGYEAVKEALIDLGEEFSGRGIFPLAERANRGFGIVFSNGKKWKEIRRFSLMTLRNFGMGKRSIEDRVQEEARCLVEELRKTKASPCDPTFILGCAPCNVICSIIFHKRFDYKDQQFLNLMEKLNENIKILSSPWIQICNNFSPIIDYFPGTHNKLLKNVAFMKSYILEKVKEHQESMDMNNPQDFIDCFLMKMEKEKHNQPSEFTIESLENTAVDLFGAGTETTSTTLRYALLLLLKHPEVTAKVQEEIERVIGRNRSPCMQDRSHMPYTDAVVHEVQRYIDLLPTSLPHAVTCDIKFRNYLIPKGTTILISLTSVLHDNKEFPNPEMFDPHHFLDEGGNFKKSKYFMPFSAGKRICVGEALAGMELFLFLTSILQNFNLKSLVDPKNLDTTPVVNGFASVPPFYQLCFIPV
Cannabinoid receptor 2, sequence (P34972 whole entry): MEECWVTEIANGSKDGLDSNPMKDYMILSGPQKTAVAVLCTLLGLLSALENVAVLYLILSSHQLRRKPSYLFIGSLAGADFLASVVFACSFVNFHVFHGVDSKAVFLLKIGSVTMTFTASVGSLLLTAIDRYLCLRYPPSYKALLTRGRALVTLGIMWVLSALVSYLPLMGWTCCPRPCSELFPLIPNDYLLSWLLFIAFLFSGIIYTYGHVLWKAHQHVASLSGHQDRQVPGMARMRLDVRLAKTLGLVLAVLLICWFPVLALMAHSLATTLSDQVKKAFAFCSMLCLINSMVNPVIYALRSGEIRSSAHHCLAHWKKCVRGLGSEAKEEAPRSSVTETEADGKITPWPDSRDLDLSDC
Voltage-gated inwardly rectifying potassium channel KCNH2, sequence (Q12809 whole entry): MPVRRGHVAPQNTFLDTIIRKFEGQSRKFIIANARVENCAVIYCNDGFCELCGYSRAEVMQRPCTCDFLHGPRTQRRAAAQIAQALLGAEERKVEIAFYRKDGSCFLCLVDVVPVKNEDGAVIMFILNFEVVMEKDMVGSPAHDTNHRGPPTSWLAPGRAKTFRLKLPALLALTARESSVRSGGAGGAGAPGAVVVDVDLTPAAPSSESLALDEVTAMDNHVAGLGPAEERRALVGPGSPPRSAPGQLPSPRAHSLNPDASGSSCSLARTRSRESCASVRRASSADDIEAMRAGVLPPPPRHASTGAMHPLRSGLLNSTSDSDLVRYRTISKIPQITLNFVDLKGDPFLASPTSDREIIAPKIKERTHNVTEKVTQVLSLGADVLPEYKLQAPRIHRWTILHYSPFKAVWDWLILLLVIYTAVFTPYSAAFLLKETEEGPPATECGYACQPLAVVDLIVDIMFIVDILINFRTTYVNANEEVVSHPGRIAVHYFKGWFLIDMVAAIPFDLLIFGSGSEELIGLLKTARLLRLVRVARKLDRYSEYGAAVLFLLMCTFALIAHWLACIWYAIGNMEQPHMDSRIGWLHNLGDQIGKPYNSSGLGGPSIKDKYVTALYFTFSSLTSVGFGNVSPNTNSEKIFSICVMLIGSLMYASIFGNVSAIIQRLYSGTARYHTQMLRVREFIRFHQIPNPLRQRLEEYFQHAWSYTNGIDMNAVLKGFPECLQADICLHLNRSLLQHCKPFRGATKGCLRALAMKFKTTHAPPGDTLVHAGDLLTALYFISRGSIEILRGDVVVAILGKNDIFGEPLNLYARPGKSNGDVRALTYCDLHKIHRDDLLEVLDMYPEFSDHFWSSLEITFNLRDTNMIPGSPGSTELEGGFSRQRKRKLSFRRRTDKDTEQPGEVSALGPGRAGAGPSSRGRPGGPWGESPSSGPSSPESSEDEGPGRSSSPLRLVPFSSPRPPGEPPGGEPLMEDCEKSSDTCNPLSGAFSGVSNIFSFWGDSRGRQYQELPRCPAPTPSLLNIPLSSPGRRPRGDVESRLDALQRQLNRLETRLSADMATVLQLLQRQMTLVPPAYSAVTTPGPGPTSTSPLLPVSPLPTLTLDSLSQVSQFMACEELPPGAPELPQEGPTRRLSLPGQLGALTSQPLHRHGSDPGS

Compound	IC50 (Cannabinoid receptor 2) [nM]	Ratio IC50 [1]	IC50 (Cannabinoid receptor 1) [nM]	Activity (Mus musculus [2]) [%]	other results
FC(F)(F)C1(c2nnc(-c3nn(-c4ccccc4Cl)c(-c4ccc(Br)cc4)c3Cn3cncn3)s2)CCC1	73.6	87	0.848	–	–
CC1(c2nnc(-c3nn(-c4ccc(Cl)cc4Cl)c(-c4ccc(Cl)cc4)c3Cn3cncn3)s2)CC1	–	–	2.4	23.68	–
C[C@H](NC(=O)C(C)(C)Oc1ccc(C(F)(F)F)cn1)[C@@H](Cc1ccc(Cl)cc1)c1cccc(C#N)c1 [TARANABANT]	–	–	–	29.55	Activity (Rattus norvegicus [3]): 17.16%; Tmax [4]: 0.5 h; Cmax [5]: 360 ng/mL; Cmax [6]: 470 ng/mL; Clast (Rattus norvegicus [7]): 20 ng/mL; Clast (Rattus norvegicus [8]): 10 ng/mL; half-life [9]: 14.8 h; half-life [10]: 2.76 h; clearance [11]: 40.8 mL/min/kg; AUC (Rattus norvegicus [12]): 83.64 min/µg/mL; AUC (Rattus norvegicus [13]): 24.75 min/µg/mL; bioavailability [14]: 67.6%; BPR [15]: 52%; IC50 (Cytochrome P450 1A2): > 20000 nM; IC50 (Cytochrome P450 2C9): 930 nM; IC50 [16]: 14200 nM; Activity (Nucleic Acid): Non-toxic; Activity [17]: Non-toxic; IC50 (Cytochrome P450 2D6): 590 nM
FC(F)(F)c1ccccc1-n1nc(-c2nnc(C3(C(F)(F)F)CCC3)s2)c(Cn2cncn2)c1-c1ccc(Cl)cc1	76.8	11.8	6.48	23.68	–
Clc1ccc(-c2c(Cn3cncn3)c(-c3nnc(C4(c5ccc(Cl)cc5)CC4)s3)nn2-c2ccc(Cl)cc2Cl)cc1	–	–	–	23.68	–
FC(F)(F)C1(c2nnc(-c3nn(-c4ccc(Cl)cc4Cl)c(-c4ccc(Cl)cc4)c3Cn3cncn3)s2)CC1	3630	1590	–	23.68	–
FC(F)(F)C1(c2nnc(-c3nn(-c4ccccc4Cl)c(-c4ccc(Br)cc4)c3Cn3cncn3)s2)CC1	124	125	0.992	–	–
Cc1c(C(=O)NN2CCCCC2)nn(-c2ccc(Cl)cc2Cl)c1-c1ccc(Cl)cc1 [RIMONABANT]	–	–	–	18.02	Activity (Rattus norvegicus [3]): 10.61%; Tmax [4]: 0.5 h; Cmax [5]: 290 ng/mL; Cmax [6]: 300 ng/mL; Clast (Rattus norvegicus [8]): 10 ng/mL; half-life [9]: 8.23 h; half-life [10]: 3.09 h; clearance [11]: 82.4 mL/min/kg; AUC (Rattus norvegicus [12]): 33.4 min/µg/mL; AUC (Rattus norvegicus [13]): 12.59 min/µg/mL; bioavailability [14]: 53.1%; IC50 (Cytochrome P450 1A2): > 20000 nM; IC50 (Cytochrome P450 3A4): > 20000 nM; IC50 [16]: 4800 nM; Activity (Nucleic Acid): Non-toxic; Activity [17]: Non-toxic; IC50 (Cytochrome P450 2D6): > 20000 nM
CC1(c2nnc(-c3nn(-c4ccc(Cl)cc4Cl)c(-c4ccc(Br)cc4)c3Cn3cncn3)s2)CC1	–	–	2.91	23.68	–
CC(C)(C)c1nnc(-c2nn(-c3ccccc3Cl)c(-c3ccc(Cl)cc3)c2Cn2cncn2)s1	–	–	–	23.68	–
Clc1ccc(C2(c3nnc(-c4nn(-c5ccc(Cl)cc5Cl)c(-c5ccc(Br)cc5)c4Cn4cncn4)s3)CC2)cc1	–	–	0.877	23.68	–
FC(F)(F)C1(c2nnc(-c3nn(-c4ccc(Cl)cc4Cl)c(-c4ccc(Cl)cc4)c3Cn3cncn3)s2)CCC1	505	175	–	23.68	Activity (Mus musculus [18]): 34.45%; Activity (Rattus norvegicus [3]): 14.43%; IC50 (Cytochrome P450 1A2): > 20000 nM; IC50 (Cytochrome P450 2C9): > 20000 nM; IC50 (Cytochrome P450 3A4): > 20000 nM; IC50 [16]: > 10000 nM; Activity (Nucleic Acid): Non-toxic; Activity [17]: Non-toxic; EC50 [19]: > 100000 nM; EC50 (Vero): > 100000 nM; EC50 (HCT-116): > 100000 nM; EC50 (HEK293): > 100000 nM; IC50 (Cytochrome P450 2D6): > 20000 nM
FC(F)(F)C1(c2nnc(-c3nn(-c4ccccc4Cl)c(-c4ccc(Cl)cc4)c3Cn3cncn3)s2)CCC1	–	–	1.01	23.68	–
FC(F)(F)C1(c2nnc(-c3nn(-c4ccc(Cl)cc4Cl)c(-c4ccc(Br)cc4)c3Cn3cncn3)s2)CCC1	–	–	3.27	23.68	–
FC(F)(F)C1(c2nnc(-c3nn(-c4ccccc4Cl)c(-c4ccc(Cl)cc4)c3Cn3cncn3)s2)CC1	–	–	1.66	23.68	–
FC(F)(F)C1(c2nnc(-c3nn(-c4ccc(Cl)cc4Cl)c(-c4ccc(Br)cc4)c3Cn3cncn3)s2)CC1	–	–	0.991	23.68	–
Clc1ccc(-c2c(Cn3cncn3)c(-c3nnc(C4(c5ccccc5)CC4)s3)nn2-c2ccc(Cl)cc2Cl)cc1	–	–	–	23.68	–
Cc1ccc(C2(c3nnc(-c4nn(-c5ccc(Cl)cc5Cl)c(-c5ccc(Br)cc5)c4Cn4cncn4)s3)CC2)cc1	–	–	2.74	23.68	–
CC(C)(C)c1nnc(-c2nn(-c3ccc(Cl)cc3Cl)c(-c3ccc(Br)cc3)c2Cn2cncn2)s1	430	–	1.54	23.68	IC50 (Cytochrome P450 1A2): 2700 nM; IC50 (Cytochrome P450 2C9): 2600 nM; IC50 (Cytochrome P450 3A4): > 20000 nM; Activity (Nucleic Acid): Non-toxic; IC50 (Cytochrome P450 2D6): > 20000 nM
FC(F)(F)c1ccccc1-n1nc(-c2nnc(C3(C(F)(F)F)CCC3)s2)c(Cn2cncn2)c1-c1ccc(Br)cc1	27.6	6.3	4.38	–	–
Clc1ccc(-n2nc(-c3nnc(C4(c5ccccc5)CC4)s3)c(Cn3cncn3)c2-c2ccc(Br)cc2)c(Cl)c1	–	–	2.23	23.68	–
Cc1ccc(C2(c3nnc(-c4nn(-c5ccc(Cl)cc5Cl)c(-c5ccc(Cl)cc5)c4Cn4cncn4)s3)CC2)cc1	–	–	–	23.68	–
CC(C)(C)c1nnc(-c2nn(-c3ccc(Cl)cc3Cl)c(-c3ccc(Cl)cc3)c2Cn2cncn2)s1	1140	659	1.73	23.68	–
Clc1ccc(-c2c(Cn3cncn3)c(-c3nnc(C4(c5ccc(Cl)cc5)CC4)s3)nn2-c2ccccc2Cl)cc1	265	274	0.966	23.68	–
